Like-named read-outs stand apart in the source and are kept apart here.
How the values were obtained:
Experiment in all cases: Cysteine liganding, probe competition
Type in all cases: binding
UniProt O14508 = target: T1, UniProt O14508 (Homo sapiens, UniProt O14508); details: for inhibition at 100 µM: read-out: percent_inhibition
T1 construct: 200 μL of lysate containing 5 mg/ml proteome was treated with 2 μL of 100× compound stock; endogenous in cells
T1 sequence (O14508 1-198): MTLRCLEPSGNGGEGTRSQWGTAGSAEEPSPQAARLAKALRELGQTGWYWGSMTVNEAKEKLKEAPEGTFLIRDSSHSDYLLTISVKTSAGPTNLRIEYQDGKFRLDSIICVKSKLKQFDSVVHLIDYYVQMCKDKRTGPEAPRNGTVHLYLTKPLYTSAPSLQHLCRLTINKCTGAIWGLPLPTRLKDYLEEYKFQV
Source text: (§1) The following 96-well sample prep protocol was used for sample preparation.

UniProt Q6ZTA4 = target: T2, UniProt Q6ZTA4 (Homo sapiens, UniProt Q6ZTA4)
T2 construct: 200 μL of lysate containing 5 mg/ml proteome was treated with 2 μL of 100× compound stock; endogenous in cells
Source text: as §1

UniProt Q9BZY9 = target: T3, UniProt Q9BZY9 (Homo sapiens, UniProt Q9BZY9)
T3 construct: 200 μL of lysate containing 5 mg/ml proteome was treated with 2 μL of 100× compound stock; endogenous in cells
T3 sequence (Q9BZY9 1-425): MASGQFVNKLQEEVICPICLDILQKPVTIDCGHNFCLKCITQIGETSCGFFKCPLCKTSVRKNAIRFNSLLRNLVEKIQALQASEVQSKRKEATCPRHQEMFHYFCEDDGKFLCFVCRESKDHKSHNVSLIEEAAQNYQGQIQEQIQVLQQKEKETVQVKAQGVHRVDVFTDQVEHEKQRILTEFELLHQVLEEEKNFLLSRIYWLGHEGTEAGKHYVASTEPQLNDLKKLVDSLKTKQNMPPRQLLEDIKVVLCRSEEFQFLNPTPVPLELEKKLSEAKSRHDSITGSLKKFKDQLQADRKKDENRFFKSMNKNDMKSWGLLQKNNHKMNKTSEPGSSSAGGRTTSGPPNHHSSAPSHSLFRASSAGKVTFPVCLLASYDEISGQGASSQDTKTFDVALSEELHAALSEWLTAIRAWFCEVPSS
Source text: as §1

[1] = target: ANAPC16 Anaphase-promoting complex subunit 16 (Homo sapiens, UniProt Q96DE5); design: endogenous in cells
Method: (§2) Cells were resuspended in cold PBS on ice and sonicated with a probe sonicator to achieve lysis. 200 μL of lysate containing 5 mg/ml proteome was treated with 2 μL of 100× compound stock in a 2-mL deep-well plate. The treated lysate was subsequently incubate at 25° C. for 1 hr with shaking at 600 rpm. The treated lysate was further incubated with 2 μL of 10 mM desthiobiotin iodoacetamide probe at 25° C. for 1 hr with shaking at 600 rpm. Next, the lysate was further treat with 20 μL of solution of PBS containing 11 mM MgSO4 and 2.5% Turbonuclease stock and incubated at 25° C. for 20 minutes with shaking at 600 rpm. 1.7 mL ice-cold acetone was added to each well and incubated at −20° C. for 2 hr, followed by max speed (4200 rpm) spin for 45 min. Acetone was then decanted and the plates were blotted to remove acetone. The plates were then dried in open air for 20 minutes. After drying, the plates were then covered with foil seal and stored at −80° C. overnight.
(§3) The next day, samples were re-suspended in 90 μL of solution of 9M urea, 50 mM ammonium bicarbonate and 10 mM DTT by incubating at 65C for 20 min with shaking at 1500 rpm. Next, samples were cooled to 37° C. and then 10 μL of 500 mM iodoacetamide solution (92.48 mg/ml) was added. The samples were then incubated at 37° C. for 30 min with shaking at 600 rpm.
(§4) ZEBA desalting plates were equilibrated 4 times using 250 μL of 2M urea, 50 mM ammonium bicarbonate solution followed by centrifugation at 1500 rpm for 2 minutes. After equilibration was complete, samples were applied to ZEBA desalting plate and spin at 1500 rpm for 2 min on top of 1 mL 96-well deep-well collection plate to buffer exchange samples. 4 μL of solution containing 25 mM CaCl2 and 0.25 mg/mL trypsin was added to the plate and the plate was then incubated at 37° C. for 2 hrs with shaking at 600 rpm. 300 μL of solution containing 5% high-capacity streptavidin agarose slurry in 25 mM Tris-HCl pH 7.5, 150 mM NaCl, and 0.1% NP-40 then added. The plate was incubated at 25° C. for 2 hrs with shaking at 600 rpm. Samples were transferred to 25 μm filter plate and spin at 1000 rpm for 2 min. Samples were then washed 3 times with 0.75 mL of wash buffer (25 mM Tris-HCl pH 7.5, 150 mM NaCl, and 0.1% NP-40) followed by washing 3 times with 0.75 mL PBS, and then 4 times with 0.75 mL water. After the washing step, samples were eluted into polypropylene 96-well plate by addition of 250 µL of 50% MeCN/water, 0.1% formic acid and allowed to gravity drip for 10 min, followed by centrifugation at 1000 rpm for 2 min. Speedvac was used to dry the plates at about 45° C. for […]. Then the plates were covered with foil seal and stored at −20° C.
(§5) Samples were resuspended by addition of 20 μl of 12.5% ACN, 0.1% formic acid solution, covered with foil seal, and incubated at 42° C. for 10 minutes with shaking at 600 rpm. Then add 30 μL of 0.1% formic acid solution was added and the plate was covered and incubated at 42° C. for 10 minutes with shaking at 600 rpm. Seal plate was then sealed with a 96-well silicon mat for analysis.

[2] = target: T4, RNF25 E3 ubiquitin-protein ligase RNF25 (Homo sapiens, UniProt Q96BH1); design: endogenous in cells
T4 sequence (Q96BH1 1-459): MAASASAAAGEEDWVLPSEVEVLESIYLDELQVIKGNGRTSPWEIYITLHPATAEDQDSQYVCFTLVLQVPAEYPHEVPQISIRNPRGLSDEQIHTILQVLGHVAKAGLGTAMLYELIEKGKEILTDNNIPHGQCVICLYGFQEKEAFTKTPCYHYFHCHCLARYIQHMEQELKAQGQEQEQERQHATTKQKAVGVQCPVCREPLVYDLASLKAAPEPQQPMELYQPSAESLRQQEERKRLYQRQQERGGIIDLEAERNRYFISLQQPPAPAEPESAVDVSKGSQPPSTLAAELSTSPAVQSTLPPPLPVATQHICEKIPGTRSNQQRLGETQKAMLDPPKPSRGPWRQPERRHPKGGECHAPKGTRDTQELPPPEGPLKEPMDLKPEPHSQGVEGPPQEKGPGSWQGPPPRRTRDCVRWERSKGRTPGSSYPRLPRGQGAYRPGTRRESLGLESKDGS
Method: as §2, §3, §4, §5

[3] = read-out: KB02_500 uM_percent_inhibition
[4] = read-out: KB05_500 uM_percent_inhibition

T2 sequence (Q6ZTA4 whole entry, change not shown): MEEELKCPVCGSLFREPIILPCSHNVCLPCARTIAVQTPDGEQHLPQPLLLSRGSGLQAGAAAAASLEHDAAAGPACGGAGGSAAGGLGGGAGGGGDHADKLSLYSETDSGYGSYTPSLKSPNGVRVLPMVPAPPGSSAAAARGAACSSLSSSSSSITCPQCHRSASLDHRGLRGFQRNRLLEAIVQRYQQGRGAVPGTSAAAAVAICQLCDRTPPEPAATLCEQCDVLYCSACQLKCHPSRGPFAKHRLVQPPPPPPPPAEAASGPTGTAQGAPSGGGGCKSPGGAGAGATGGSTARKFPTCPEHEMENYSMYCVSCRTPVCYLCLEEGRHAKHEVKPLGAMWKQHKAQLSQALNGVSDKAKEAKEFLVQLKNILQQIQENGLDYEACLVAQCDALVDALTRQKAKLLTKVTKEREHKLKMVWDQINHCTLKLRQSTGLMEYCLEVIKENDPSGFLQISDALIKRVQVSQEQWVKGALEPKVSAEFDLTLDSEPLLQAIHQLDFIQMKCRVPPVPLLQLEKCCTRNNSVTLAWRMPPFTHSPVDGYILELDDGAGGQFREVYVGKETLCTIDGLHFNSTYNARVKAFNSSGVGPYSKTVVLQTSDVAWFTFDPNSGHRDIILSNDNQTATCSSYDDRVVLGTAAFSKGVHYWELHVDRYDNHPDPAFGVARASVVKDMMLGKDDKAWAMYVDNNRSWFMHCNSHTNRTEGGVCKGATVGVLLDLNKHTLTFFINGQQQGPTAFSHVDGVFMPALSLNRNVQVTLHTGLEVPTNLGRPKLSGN

## COc1ccc2c(c1)CCCN2C(=O)CCl [KB02]
UniProt O14508
  inhibition at 100 µM: 14%
UniProt Q6ZTA4; [3]
  inhibition at 500 µM: 44%
UniProt Q9BZY9; [3]
  inhibition at 500 µM: 68%
[1]; 100 uM, UniProt Q96DE5, read-out: KB02_100 uM_percent_inhibition
  inhibition at 100 µM: 46%
[1]; 500 uM, UniProt Q96DE5, read-out: KB02_500 uM_percent_inhibition
  inhibition at 500 µM: 85%
[1]; ANAPC16 Res# 55, uniprot Q96DE5
  Liganded: YES
[2]; RNF25 Res# 417, uniprot Q96BH1
  Liganded: YES

## C=CC(=O)N(c1ccccc1)c1ccc(Br)cc1 [KB05]
UniProt O14508
  inhibition at 100 µM: 48%
UniProt Q6ZTA4; [4]
  inhibition at 500 µM: 37%
UniProt Q9BZY9; [4]
  inhibition at 500 µM: 71%
[1]; 100 uM, UniProt Q96DE5, read-out: KB05_100 uM_percent_inhibition
  inhibition at 100 µM: 37%
[1]; 500 uM, UniProt Q96DE5, read-out: KB05_500 uM_percent_inhibition
  inhibition at 500 µM: 83%
[2]; 100 uM, UniProt Q96BH1, read-out: percent_inhibition
  inhibition at 100 µM: 11%

## O=C(CCl)Nc1cc(C(F)(F)F)cc(C(F)(F)F)c1 [KBO3]
UniProt O14508; 100 uM
  percent_inhibition: 30%
UniProt Q6ZTA4; 500 uM
  KB03_500 uM_percent_inhibition: 6%
UniProt Q9BZY9; 500 uM
  KB03_500 uM_percent_inhibition: 48%
[1]; 100 uM, UniProt Q96DE5
  KB03_100 uM_percent_inhibition: 52%
[1]; 500 uM, UniProt Q96DE5
  KB03_500 uM_percent_inhibition: 82%
[1]; uniprot Q96DE5
  500 Max: 36.5
[1]; uniprot Q96DE5, unit assumed
  100 Max: 20.4%
[2]; uniprot Q96BH1
  100 ave: 14.3
  500 Max: 62.0
  500 ave: 62.0
[2]; uniprot Q96BH1, unit assumed
  100 Max: 14.3%
